# Source: ChEMBL document CHEMBL5678818, “Discovery of potent SOS1 inhibitors that block RAS activation via disruption of the RAS-SOS1 interaction” (Proc Natl Acad Sci U S A, 2019)
# Legend:
# [1] = target: Phosphatidylinositol 4-phosphate 5-kinase type-1 alpha (Homo sapiens) (UniProt Q99755); assay: Inhibition of PIP5K1A (unknown origin) assessed as residual activity at 100 nM by KINOMEscan analysis relative to control
# [2] = target: T1, Interleukin-1 receptor-associated kinase 3 (Homo sapiens) (UniProt Q9Y616); assay: Inhibition of IRAK3 (unknown origin) assessed as residual activity at 100 nM by KINOMEscan analysis relative to control
# T1 sequence (whole entry): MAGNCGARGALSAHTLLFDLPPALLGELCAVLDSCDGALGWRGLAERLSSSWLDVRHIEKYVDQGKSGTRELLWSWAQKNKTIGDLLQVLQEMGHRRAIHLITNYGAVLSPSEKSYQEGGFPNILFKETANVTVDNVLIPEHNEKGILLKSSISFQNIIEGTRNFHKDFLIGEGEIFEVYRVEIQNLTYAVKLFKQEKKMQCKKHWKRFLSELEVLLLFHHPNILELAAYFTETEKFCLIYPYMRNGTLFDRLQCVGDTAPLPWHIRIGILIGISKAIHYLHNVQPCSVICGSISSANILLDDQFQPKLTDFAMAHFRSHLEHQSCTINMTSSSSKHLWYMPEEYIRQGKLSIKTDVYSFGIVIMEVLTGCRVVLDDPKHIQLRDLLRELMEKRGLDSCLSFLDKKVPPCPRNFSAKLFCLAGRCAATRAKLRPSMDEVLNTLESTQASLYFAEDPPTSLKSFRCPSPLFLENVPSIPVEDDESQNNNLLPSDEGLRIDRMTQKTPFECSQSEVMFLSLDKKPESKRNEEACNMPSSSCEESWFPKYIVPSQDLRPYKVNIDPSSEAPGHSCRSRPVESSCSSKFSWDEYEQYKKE
# [3] = target: Glycogen synthase kinase-3 alpha (Homo sapiens) (UniProt P49840); assay: Inhibition of GSK3A (unknown origin) assessed as residual activity at 100 nM by KINOMEscan analysis relative to control
# Chain of Glycogen synthase kinase-3 alpha (Homo sapiens) (P49840 2-483 limits assumed): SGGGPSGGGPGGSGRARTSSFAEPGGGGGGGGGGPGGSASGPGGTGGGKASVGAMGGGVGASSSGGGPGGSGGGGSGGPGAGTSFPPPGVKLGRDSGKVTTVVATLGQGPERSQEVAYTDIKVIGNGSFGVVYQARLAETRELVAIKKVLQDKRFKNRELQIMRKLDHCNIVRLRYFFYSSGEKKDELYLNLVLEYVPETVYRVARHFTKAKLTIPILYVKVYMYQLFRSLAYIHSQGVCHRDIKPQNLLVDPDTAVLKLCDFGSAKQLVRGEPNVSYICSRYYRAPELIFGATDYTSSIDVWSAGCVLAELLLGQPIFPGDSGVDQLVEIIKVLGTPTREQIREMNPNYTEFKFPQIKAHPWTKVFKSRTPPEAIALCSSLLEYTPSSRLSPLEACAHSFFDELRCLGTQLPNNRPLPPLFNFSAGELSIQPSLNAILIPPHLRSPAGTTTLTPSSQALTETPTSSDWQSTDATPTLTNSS
# [4] = target: Dual specificity protein kinase CLK1 (Homo sapiens) (UniProt P49759); assay: Inhibition of CLK1 (unknown origin) assessed as residual activity at 100 nM by KINOMEscan analysis relative to control
# [5] = target: Serine/threonine-protein kinase PLK1 (Homo sapiens) (UniProt P53350); assay: Inhibition of PLK1 (unknown origin) assessed as residual activity at 100 nM by KINOMEscan analysis relative to control
# [6] = target: Activin receptor type-2B (Homo sapiens) (UniProt Q13705); assay: Inhibition of ACVR2B (unknown origin) assessed as residual activity at 100 nM by KINOMEscan analysis relative to control
# [7] = target: Protein-tyrosine kinase 2-beta (Homo sapiens) (UniProt Q14289); assay: Inhibition of PYK2 (unknown origin) assessed as residual activity at 100 nM by KINOMEscan analysis relative to control
# Chain of Protein-tyrosine kinase 2-beta (Homo sapiens) (Q14289 whole entry, looked up): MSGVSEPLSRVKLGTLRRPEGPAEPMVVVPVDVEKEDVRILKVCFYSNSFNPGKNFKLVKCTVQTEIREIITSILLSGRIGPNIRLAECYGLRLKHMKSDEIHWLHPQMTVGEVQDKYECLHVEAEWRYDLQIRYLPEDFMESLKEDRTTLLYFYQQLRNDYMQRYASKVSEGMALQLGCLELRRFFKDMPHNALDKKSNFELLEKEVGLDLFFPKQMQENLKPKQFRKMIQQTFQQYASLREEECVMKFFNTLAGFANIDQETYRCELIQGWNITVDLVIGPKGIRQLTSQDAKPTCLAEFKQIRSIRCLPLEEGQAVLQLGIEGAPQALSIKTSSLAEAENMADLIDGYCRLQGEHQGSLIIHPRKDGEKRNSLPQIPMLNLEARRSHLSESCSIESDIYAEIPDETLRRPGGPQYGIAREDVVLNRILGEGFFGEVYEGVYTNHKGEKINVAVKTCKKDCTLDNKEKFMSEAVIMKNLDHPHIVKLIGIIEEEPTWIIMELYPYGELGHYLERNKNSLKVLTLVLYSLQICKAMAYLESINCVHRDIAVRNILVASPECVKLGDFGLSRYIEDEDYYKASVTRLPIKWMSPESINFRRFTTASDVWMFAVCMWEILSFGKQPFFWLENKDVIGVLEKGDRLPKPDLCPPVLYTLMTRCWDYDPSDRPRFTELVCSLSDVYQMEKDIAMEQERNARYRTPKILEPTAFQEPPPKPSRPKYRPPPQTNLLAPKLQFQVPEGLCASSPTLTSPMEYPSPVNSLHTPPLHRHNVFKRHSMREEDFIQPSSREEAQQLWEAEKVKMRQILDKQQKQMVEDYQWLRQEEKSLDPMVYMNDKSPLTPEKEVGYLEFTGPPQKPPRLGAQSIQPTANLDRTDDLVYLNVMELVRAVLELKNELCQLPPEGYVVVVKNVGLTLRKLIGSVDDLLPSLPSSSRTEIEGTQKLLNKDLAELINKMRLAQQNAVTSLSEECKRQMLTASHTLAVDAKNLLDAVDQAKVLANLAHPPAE
# [8] = target: T2, Dual specificity tyrosine-phosphorylation-regulated kinase 2 (Homo sapiens) (UniProt Q92630); assay: Inhibition of DYRK2 (unknown origin) assessed as residual activity at 100 nM by KINOMEscan analysis relative to control
# T2 sequence (whole entry): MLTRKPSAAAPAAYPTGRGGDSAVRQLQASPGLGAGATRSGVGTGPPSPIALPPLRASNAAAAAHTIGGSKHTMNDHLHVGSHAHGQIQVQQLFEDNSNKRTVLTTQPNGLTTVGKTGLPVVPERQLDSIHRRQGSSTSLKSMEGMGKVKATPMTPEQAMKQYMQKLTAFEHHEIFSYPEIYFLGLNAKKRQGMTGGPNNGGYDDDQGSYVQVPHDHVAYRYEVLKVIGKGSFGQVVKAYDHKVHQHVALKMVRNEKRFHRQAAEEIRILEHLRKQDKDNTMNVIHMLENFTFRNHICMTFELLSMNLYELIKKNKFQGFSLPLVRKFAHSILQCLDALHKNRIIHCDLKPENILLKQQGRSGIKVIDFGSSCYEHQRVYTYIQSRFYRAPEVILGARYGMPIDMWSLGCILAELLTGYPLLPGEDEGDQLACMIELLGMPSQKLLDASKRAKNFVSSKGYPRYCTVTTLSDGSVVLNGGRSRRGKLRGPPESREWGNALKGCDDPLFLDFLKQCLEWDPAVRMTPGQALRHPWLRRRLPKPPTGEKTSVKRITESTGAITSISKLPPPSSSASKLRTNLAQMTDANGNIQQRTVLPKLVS
# [9] = target: Serine/threonine-protein kinase RIO2 (Homo sapiens) (UniProt Q9BVS4); assay: Inhibition of RIOK2 (unknown origin) assessed as residual activity at 100 nM by KINOMEscan analysis relative to control
# Chain of Serine/threonine-protein kinase RIO2 (Homo sapiens) (Q9BVS4 whole entry, looked up): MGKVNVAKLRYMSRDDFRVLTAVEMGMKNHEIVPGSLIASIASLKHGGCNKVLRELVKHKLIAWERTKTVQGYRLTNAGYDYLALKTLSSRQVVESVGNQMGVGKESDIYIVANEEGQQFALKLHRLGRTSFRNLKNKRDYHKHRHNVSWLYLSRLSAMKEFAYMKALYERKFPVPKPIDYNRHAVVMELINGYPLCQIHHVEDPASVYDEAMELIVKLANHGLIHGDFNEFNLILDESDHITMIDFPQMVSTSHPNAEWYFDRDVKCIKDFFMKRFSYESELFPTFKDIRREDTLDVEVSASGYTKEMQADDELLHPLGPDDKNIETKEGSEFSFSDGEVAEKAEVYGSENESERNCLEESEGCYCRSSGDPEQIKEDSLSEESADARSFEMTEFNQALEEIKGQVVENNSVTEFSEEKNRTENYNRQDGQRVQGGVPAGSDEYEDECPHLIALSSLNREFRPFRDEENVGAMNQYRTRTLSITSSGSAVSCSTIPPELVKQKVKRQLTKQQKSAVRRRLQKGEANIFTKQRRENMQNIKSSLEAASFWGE
# [10] = target: Hepatocyte growth factor receptor (Homo sapiens) (UniProt P08581); assay: Inhibition of MET (unknown origin) assessed as residual activity at 100 nM by KINOMEscan analysis relative to control
# [11] = tested on: Tyrosine-protein kinase ABL1 (Homo sapiens), P00519 [H396P]; assay: Inhibition of nonphosphorylated ABL1 H396P mutant (unknown origin) assessed as residual activity at 100 nM by KINOMEscan analysis relative to control
# [12] = target: Serine/threonine-protein kinase PAK 6 (Homo sapiens) (UniProt Q9NQU5); assay: Inhibition of PAK6 (unknown origin) assessed as residual activity at 100 nM by KINOMEscan analysis relative to control
# Chain of Serine/threonine-protein kinase PAK 6 (Homo sapiens) (Q9NQU5 whole entry, looked up): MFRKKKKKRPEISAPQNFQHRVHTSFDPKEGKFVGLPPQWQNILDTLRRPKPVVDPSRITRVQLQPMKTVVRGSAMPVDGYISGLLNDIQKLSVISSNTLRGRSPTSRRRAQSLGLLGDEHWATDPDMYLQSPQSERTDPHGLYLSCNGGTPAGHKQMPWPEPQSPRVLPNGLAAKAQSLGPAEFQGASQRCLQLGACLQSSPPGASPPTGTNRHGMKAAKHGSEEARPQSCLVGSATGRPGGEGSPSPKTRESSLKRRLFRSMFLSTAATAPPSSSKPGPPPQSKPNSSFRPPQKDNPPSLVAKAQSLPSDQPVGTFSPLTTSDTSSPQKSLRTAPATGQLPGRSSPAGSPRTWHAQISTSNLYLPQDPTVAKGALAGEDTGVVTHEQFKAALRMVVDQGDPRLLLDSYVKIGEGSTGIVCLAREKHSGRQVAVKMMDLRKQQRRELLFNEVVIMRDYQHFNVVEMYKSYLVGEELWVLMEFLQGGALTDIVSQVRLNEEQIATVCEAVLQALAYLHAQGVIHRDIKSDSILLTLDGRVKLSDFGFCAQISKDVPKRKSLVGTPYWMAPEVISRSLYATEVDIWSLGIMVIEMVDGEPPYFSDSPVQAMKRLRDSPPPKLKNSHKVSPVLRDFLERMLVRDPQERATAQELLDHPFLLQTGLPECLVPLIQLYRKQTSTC
# [13] = tested on: ALK tyrosine kinase receptor (Homo sapiens), Q9UM73 [C1156Y]; assay: Inhibition of ALK C1156Y mutant (unknown origin) assessed as residual activity at 100 nM by KINOMEscan analysis relative to control
# Chain of ALK tyrosine kinase receptor (Homo sapiens), Q9UM73 [C1156Y] (Q9UM73 whole entry C1156Y, looked up): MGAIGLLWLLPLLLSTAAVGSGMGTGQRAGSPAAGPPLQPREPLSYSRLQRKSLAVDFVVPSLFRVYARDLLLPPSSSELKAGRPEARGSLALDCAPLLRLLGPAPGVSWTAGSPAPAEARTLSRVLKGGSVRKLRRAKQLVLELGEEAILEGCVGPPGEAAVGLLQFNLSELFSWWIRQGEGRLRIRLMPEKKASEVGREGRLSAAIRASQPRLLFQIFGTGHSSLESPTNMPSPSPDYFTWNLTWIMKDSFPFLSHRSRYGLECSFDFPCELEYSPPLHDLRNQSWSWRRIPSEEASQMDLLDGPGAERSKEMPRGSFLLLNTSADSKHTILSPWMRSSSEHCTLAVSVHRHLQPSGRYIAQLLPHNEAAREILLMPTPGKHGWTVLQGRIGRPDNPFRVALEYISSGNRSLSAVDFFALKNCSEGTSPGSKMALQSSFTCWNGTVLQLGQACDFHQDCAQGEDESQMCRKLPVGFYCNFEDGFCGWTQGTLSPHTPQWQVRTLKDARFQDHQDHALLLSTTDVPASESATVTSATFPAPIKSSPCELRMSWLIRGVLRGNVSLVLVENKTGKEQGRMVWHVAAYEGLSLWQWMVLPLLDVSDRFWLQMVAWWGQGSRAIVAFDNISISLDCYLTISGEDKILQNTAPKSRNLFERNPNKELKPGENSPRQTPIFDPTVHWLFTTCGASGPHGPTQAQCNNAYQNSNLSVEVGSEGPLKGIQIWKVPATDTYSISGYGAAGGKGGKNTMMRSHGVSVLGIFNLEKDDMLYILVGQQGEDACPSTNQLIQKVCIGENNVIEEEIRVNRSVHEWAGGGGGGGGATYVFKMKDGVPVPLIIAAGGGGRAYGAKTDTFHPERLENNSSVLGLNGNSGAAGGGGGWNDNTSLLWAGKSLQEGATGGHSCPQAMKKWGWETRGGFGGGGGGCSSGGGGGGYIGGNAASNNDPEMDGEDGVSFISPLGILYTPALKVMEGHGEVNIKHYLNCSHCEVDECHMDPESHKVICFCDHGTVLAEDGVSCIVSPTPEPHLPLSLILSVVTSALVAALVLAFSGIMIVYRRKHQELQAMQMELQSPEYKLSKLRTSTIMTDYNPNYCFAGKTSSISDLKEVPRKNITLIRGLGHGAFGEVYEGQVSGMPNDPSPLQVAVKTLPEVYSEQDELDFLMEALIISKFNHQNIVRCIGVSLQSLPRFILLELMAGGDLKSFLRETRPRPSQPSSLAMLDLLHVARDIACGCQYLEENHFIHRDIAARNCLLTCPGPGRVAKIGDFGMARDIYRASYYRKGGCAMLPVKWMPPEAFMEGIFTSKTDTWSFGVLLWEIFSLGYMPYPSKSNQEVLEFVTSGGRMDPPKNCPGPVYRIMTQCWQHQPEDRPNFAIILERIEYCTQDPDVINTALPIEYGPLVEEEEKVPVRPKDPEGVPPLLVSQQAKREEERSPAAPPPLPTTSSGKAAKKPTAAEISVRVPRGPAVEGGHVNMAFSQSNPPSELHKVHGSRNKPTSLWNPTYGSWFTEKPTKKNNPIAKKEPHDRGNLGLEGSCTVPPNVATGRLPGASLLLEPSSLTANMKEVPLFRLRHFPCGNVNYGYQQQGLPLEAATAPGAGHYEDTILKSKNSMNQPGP
# Chain of Phosphatidylinositol 4-phosphate 5-kinase type-1 alpha (Homo sapiens) (Q99755 whole entry): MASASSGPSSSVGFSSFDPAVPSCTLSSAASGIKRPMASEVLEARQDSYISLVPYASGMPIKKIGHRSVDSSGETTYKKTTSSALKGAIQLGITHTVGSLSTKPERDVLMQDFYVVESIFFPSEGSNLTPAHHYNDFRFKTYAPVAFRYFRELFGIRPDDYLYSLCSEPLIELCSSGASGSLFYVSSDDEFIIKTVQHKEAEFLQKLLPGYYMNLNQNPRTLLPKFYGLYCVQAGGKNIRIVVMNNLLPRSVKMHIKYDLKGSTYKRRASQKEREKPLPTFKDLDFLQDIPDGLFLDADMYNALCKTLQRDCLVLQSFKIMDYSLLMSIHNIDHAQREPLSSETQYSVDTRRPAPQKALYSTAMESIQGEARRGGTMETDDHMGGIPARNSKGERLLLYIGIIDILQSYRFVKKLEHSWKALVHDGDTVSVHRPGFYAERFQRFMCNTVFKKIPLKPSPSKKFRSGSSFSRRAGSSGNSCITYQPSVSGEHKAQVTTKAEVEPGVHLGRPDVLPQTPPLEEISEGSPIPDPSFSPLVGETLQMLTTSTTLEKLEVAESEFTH
structure (smiles),measurement,setting,value
COc1cc2ncnc(N[C@H](C)c3cccc4ccccc34)c2cc1OC,Activity,[1],90%
same,Activity,[2],100%
same,Activity,[3],75%
same,Activity,[4],91%
same,Activity,[5],85%
same,Activity,[6],91%
same,Activity,[7],100%
same,Activity,[8],80%
same,Activity,[9],65%
same,Activity,[10],100%
same,Activity,[11],100%
same,Activity,[12],92%
same,Activity,[13],99%
